# Entries after “also recorded” stand apart in the source; their conditions may differ.
# Experiments:
# FAP = molecular target: T1, FAP (Homo sapiens, UniProt Q12884); experiment: Fluorescent peptide dipeptidyl peptidase activity assay; assay type: biochemical; conditions: fluorescent peptide substrate
# T1 construct: purchased R&D systems 3715-SE-010
# Method: (§1) 100 mM stock of dipeptidyl peptidase substrate (Acetyl-Aka-Gly-Pro-AFC) (Anaspec, cat #AS-24126) was made by resuspending lyophilized substrate in DMSO. On the day of the assay, substrate stock was then diluted 1:1000 in activity assay buffer (50 mM Tris, 1 M NaCl, 1 mg/mL BSA, pH 7.5). A standard curve was generated using rFAP (R&D systems, cat #3715-SE-010) or rDPP4 (R&D systems, cat #9168-SE) and 50 uL of recombinant protein plus 50 uL of substrate was added to each well of a 96 Well Flat Clear Bottom White Polystyrene TC-Treated Microplates (Corning, cat #3903). The plate was incubated for 30 minutes at 37° C. then read on a PerkinElmer EnVision Multimode Plate Reader with 390-400 nm excitation and […] emission wavelengths. To test tumor lysates, 50-100 mg of snap frozen tumors were homogenized in 100-300 uL activity assay buffer using a Kimble Biomasher II closed system tissue grinder (DWK Life Sciences, cat #749625-0020). Protein concentration was determined using Bio-rad protein concentration DC Protein Assay Kit II (Bio-rad, cat #5000112). All samples were diluted to equal protein concentrations using activity assay buffer then added at 50 uL plus 50 uL substrate per well. Final concentration of FAP per well was calculated using the standard curve. Data were compiled and assessed for significance using GraphPad Prism 9 for an unpaired, two-tailed t-test.
# DPPIV = molecular target: T2, DPPIV (Homo sapiens, UniProt P27487); experiment: as above; assay type: biochemical; conditions: fluorescent peptide substrate
# T2 construct: purchased R&D systems 9168-SE
# Method: as §1
# NK92-GFP cells [1] = experiment: NK92-GFP extravasation from zebrafish blood vessels; assay type: in vivo; conditions: fish bathed in 10 uM Cpd60 vs vehicle; 1 hour after injection
# Method: The zebrafish embryos were anesthetized with 0.0003016% tricaine (Pentair Aquatic Eco-Systems, Sigma-Aldrich, St. Louis, MO, USA) in the Georgetown-Lombardi Animal Shared Resource and positioned within our zebrafish stereotax on a proprietary microinjection plate. NK92-GFP cells were injected into the pericardium using an air driven Picospritzer Ha microinjector (General Valve/Parker Hannifin) under a stereoscope. After transplantation, embryos were allowed to recover for 1 hour at 33° C. Confocal imaging was performed on an Olympus IX-71 inverted microscope with a color CCD camera in the Georgetown-Lombardi Microscopy Shared Resource. Fluorescent imaging was performed on Keyence BZ-X. Images were taken at 10× across multiple z-stacks. […] NK extravasation quantification was performed by counting the number of GFP cells outside red vasculature. NK extravasation quantification was performed blinded to the treatment conditions. […]
# Zebrafish studies were conducted in accordance with NIH guidelines for the care and use of laboratory animals and were approved by the Georgetown University Institutional Animal Care and Use Committee. […] NK extravasation quantification was performed by counting the number of GFP cells outside red vasculature. NK extravasation quantification was performed blinded to the treatment conditions. […]
# NK92-GFP cells [2] = experiment: NK92-GFP infiltration into PDAC tumor spheroids; assay type: cell-based, human; conditions: 10 uM Cpd60, 4 hours
# Method: PSC or PANC-1 spheroids were generated by plating 10,000 cells in a 0.1% agarose coated U-bottomed 96-well plate. PSC+PANC-1 spheroids were generated by plating 5,000 cells of each cell type. Aggregation was promoted by centrifuging the cells at 1000 rpm for 5 minutes. Cells incubated overnight at 37° C. The next day, 1,000 NK92-GFP cells were added per well and incubated for 4 hours at 37° C. Spheroids were imaged using the Olympus IX-71 Inverted Epifluorescent Microscope at 5×. Images were analyzed in FIJI. All images underwent identical contrast enhancement and background reduction. Then a line was drawn from spheroid edge to spheroid center and GFP intensity along that line was measured. Graphs of resulting data and statistical analysis were generated in Graphpad Prism 9.
# T2 sequence (P27487 whole entry): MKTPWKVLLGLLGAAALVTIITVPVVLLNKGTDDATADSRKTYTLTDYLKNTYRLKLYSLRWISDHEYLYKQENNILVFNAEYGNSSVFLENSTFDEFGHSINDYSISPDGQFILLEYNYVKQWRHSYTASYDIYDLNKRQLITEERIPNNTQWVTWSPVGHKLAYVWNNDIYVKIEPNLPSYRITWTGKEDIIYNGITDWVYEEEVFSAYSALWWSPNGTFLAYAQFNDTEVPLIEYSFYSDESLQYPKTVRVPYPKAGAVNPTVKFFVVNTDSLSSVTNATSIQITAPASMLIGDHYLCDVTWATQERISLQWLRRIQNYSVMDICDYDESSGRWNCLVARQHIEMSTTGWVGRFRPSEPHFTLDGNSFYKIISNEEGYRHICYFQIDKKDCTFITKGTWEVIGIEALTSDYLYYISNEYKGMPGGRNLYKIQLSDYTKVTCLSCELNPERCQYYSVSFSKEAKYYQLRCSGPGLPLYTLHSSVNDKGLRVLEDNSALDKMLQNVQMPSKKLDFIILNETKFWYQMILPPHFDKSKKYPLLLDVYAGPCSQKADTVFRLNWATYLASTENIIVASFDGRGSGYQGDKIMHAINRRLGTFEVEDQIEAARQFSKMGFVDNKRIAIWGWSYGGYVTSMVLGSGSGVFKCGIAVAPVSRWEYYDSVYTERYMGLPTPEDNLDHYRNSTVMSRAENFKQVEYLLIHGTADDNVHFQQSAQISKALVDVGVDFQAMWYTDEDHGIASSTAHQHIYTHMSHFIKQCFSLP
# T1 sequence (Q12884 whole entry): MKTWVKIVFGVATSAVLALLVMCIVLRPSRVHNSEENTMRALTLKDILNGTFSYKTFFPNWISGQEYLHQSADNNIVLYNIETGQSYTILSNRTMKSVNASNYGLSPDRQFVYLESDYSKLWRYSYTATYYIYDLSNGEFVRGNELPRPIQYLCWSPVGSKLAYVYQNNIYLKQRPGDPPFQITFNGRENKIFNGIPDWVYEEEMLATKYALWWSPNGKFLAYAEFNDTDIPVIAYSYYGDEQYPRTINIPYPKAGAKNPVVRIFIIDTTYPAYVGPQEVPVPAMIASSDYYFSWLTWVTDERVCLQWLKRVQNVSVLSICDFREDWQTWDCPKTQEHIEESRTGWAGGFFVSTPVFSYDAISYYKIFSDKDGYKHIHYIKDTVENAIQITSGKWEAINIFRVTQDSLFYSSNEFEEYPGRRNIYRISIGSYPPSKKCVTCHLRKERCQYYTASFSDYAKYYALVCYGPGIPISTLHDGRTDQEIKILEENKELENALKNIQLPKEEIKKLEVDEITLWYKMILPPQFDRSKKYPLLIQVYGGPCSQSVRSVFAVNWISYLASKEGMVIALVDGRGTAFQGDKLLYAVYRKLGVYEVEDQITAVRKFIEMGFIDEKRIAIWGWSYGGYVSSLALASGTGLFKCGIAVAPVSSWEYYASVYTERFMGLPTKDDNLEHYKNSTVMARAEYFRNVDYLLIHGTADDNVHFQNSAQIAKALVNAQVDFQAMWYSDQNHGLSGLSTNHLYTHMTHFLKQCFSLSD
compound,measurement,setting,value
N#C[C@@H]1CC(F)(F)CN1C(=O)CNC(=O)c1ccnc2ccccc12 [Cpd60],inhibition of FAP dipeptidyl peptidase activity,FAP,inhibits FAP
same,inhibition of DPPIV dipeptidyl peptidase activity,DPPIV,"but not FAP's most closely related protein, DPPIV; also recorded: not DPPIV"
same,NK cell extravasation from the blood vessels,NK92-GFP cells [1],significantly reduced
same,NK cell content in PANC-1 spheroids,NK92-GFP cells [2]; any region,no effect
same,NK cell content in PSC spheroids,NK92-GFP cells [2]; mid-edge and mid-center regions,significantly reduced
same,NK cell content in PSC+PANC-1 spheroids,NK92-GFP cells [2]; mid-edge region,significantly reduced
